In ChEMBL document CHEMBL1137272, “Discovery and synthesis of tetrahydroindolone derived semicarbazones as selective Kv1.5 blockers” (Bioorg Med Chem Lett, 2006):
Calls of active or inactive are those of the source. The rule behind the calls is not given here.

Tests used:
[1] = molecular target: T1, Potassium voltage-gated channel subfamily A member 5 (Homo sapiens, UniProt P22460); assay: Inhibition of Kv1.5 expressed in LTK- cells by whole cell patch clamp assay at 1uM; assay type: functional, cell-based
[2] = molecular target: Voltage-gated L-type calcium channel (Homo sapiens, UniProt Q13936+Q13698+Q01668+O60840); assay: Inhibition of L-type calcium channel by FLIPR assay; assay type: functional
[3] = system: Sus scrofa; assay: Prolonged ventricular refractory period in pigs after 15 minute iv infusion at 10mg/kg; assay type: functional, organism-based; details: Cardiac ventricle
[4] = molecular target: T1, Potassium voltage-gated channel subfamily A member 5; assay: Inhibition of Kv1.5 expressed in LTK- cells by whole cell patch clamp assay; assay type: functional, cell-based
[5] = system: Sus scrofa; assay: Prolonged right atrial refractory period in pigs after 15 minute iv infusion at 10mg/kg; assay type: functional, Cardiac atrium
[6] = system: Sus scrofa; assay: Prolonged right atrial refractory period in pigs after 15 minute iv infusion at 30mg/kg; assay type: functional, Cardiac atrium
[7] = system: Sus scrofa; assay: Prolonged ventricular refractory period in pigs after 15 minute iv infusion at 30mg/kg; assay type: functional, organism-based; details: Cardiac ventricle

T1 sequence (P22460 whole entry): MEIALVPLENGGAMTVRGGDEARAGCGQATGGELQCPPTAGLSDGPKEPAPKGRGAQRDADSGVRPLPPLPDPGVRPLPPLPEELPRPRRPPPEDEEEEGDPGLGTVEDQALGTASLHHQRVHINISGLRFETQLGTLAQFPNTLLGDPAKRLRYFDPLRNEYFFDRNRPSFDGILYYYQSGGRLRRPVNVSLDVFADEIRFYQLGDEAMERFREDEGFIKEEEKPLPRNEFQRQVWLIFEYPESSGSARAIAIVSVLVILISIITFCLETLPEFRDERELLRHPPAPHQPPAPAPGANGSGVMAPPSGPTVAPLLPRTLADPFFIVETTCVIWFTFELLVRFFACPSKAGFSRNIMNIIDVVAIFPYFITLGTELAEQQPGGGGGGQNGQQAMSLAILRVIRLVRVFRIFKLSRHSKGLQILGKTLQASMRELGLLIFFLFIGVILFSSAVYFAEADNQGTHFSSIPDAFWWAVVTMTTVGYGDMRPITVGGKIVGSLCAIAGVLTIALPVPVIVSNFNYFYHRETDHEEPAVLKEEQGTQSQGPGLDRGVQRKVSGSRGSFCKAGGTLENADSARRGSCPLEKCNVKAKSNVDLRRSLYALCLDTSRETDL

Row | Structure (SMILES) | inhibition [1] | further results
1 | Cc1[nH]c2c(c1C)/C(=N/NC(=O)Nc1ccccc1)CCC2 | 37% | 
2 | CCc1c(C)[nH]c2c1/C(=N/NC(=S)Nc1ccc(Cl)cc1)CCC2 | 71% | 
3 | Cc1[nH]c2c(c1C)/C(=N/NC(=O)Nc1ccc(C(F)(F)F)cc1)CCC2 | 63% | 
4 | Cc1[nH]c2c(c1C(C)C)/C(=N/NC(=O)Nc1ccccc1)CCC2 | inactive | 
5 | CCc1c(C)[nH]c2c1/C(=N/N(C)C(=O)Nc1cccc(Cl)c1)CCC2 | 89% | 
6 | O=C(N/N=C1\CCCC2=C1C1CCCCC1N2)Nc1ccccc1 (stereo not given) | 20% | 
7 | Cc1[nH]c2c(c1C(C)C)/C(=N/NC(=O)Nc1ccc(Cl)cc1)CCC2 | inactive | 
8 | CCc1c(C)[nH]c2c1/C(=N/NC(=O)Nc1cccc(C3CCCN3)c1)CCC2 (stereo not given) | 60% | IC50 [4]: 0.75 µM
9 | CCc1c(C)[nH]c2c1/C(=N/NC(=O)Nc1ccc(SC)cc1)CCC2 | 80% | IC50 [4]: 0.28 µM
10 | O=C(N/N=C1\CCCc2[nH]ccc21)Nc1ccc(Cl)cc1 | 28% | IC50 [4]: 5.6 µM
11 | CCc1c(C)[nH]c2c1/C(=N/N(C)C(=O)Nc1ccccc1)CCC2 | 65% | 
12 | CCc1c(C)[nH]c2c1/C(=N/N(C)C(=O)Nc1ccc(Cl)cc1)CCC2 | 93% | IC50 [4]: 0.13 µM; Prolonged ARP [6]: 18%; Prolonged VRP [7]: inactive
13 | CCc1c2c(n(C)c1CC)CCC/C2=N\N(C)C(=O)Nc1ccc(C(C)=O)cc1 | 90% | IC50 [4]: 0.37 µM
14 | CCc1[nH]c2c(c1CC)/C(=N/NC(=O)Nc1ccccc1)CCC2 | 56% | 
15 | CCc1c(C)[nH]c2c1/C(=N/N(C)C(=O)Nc1ccc(SC)cc1)CCC2 | 78% | 
16 | CCc1[nH]c2c(c1CC)/C(=N/NC(=O)Nc1ccc(OC)cc1)CCC2 | 85% | 

The next lines start with results.

Row | inhibition [1] | Structure (SMILES) | further results
17 | inactive | O=C(N/N=C1\CCCc2[nH]ccc21)Nc1ccccc1 | 
18 | 67% | CCc1[nH]c2c(c1CC)/C(=N/NC(=O)Nc1cccc(SC)c1)CCC2 | 
19 | 85% | CCc1c(C)[nH]c2c1/C(=N/NC(=O)Nc1ccccc1)CCC2 | IC50 [2]: > 30 µM; Prolonged VRP [3]: inactive; IC50 [4]: 0.13 µM; Prolonged ARP [5]: 28%
20 | 52% | CCc1c(C)[nH]c2c1/C(=N/NC(=S)Nc1ccc(C(F)(F)F)cc1)CCC2 | 
21 | 50% | CCc1c(C)[nH]c2c1/C(=N/NC(=O)Nc1ccc(C)cc1)CCC2 | 
22 | 64% | CCc1c(C)[nH]c2c1/C(=N/NC(=S)Nc1cccc(C)c1)CCC2 | 
23 | 56% | CCc1[nH]c2c(c1CC)/C(=N/NC(=O)Nc1ccc(SC)cc1)CCC2 | 
24 | 65% | CCc1c(C)[nH]c2c1/C(=N/NC(=O)Nc1ccc(Cl)cc1)CCC2 | IC50 [4]: 0.44 µM
25 | 90% | CCc1c2c(n(C)c1CC)CCC/C2=N\N(C)C(=O)Nc1ccc(Cl)cc1 | 
26 | 86% | CCc1c(C)[nH]c2c1/C(=N/N(C)C(=O)Nc1ccc(C(C)=O)cc1)CCC2 | 
27 | 84% | CCc1c2c(n(C)c1CC)CCC/C2=N\N(C)C(=O)Nc1ccccc1 | 
28 | 91% | CCc1c(C)[nH]c2c1/C(=N/NC(=S)Nc1cccc(C(F)(F)F)c1)CCC2 | IC50 [4]: 0.2 µM
29 | 60% | CCc1[nH]c2c(c1CC)/C(=N/NC(=O)Nc1ccc(Cl)cc1)CCC2 | 
30 | 67% | Cc1[nH]c2c(c1C)/C(=N/NC(=O)Nc1ccc(Cl)cc1)CCC2 | IC50 [4]: 0.37 µM
31 | 78% | CCc1c(C)[nH]c2c1/C(=N/NC(=S)Nc1cccc(Cl)c1)CCC2 | 
